In the test the test system is 327498-153-R-J2-PDC multicell spheroid viability. The experiment in a line: Anticancer human tumor 327498-153-R-J2-PDC patient-derived uterine carcinosarcoma cell line growth inhibition [IpAb]. The conditions noted are these: for viability, T/C: stronger effect = lower value. Put shortly:
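Multi-cell spheroids of 60% tumour cells, 25% HUVEC and 15% MSC in ultra-low-attachment U-bottom wells, treated with agents combined with ipatasertib or abemaciclib. Half-log ranges top out near clinical Cmax, or 10 microM when Cmax is unknown.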

[1] abbreviates: curve of first compound, second compound 0.01 µM.
Setting [2] is: curve of first compound, second compound 0.0316 µM.
The mark [3] stands for this setting: curve of first compound, second compound 0.1 µM.
Setting [4] is: curve of first compound, second compound 0.316 µM.
The mark [5] stands for this setting: curve of first compound, second compound 1 µM.
The mark [6] stands for this setting: second compound 0.1 µM, first compound 0.0316 µM.
[7] abbreviates: second compound 0.1 µM, first compound 0.1 µM.
[8] abbreviates: second compound 0.1 µM, first compound 0.316 µM.
The mark [9] stands for this setting: second compound 0.1 µM, first compound 1 µM.
Where [10] appears, read: second compound 0.316 µM, first compound 0.0316 µM.
[11] abbreviates: second compound 0.316 µM, first compound 0.1 µM.
The mark [12] stands for this setting: second compound 0.316 µM, first compound 0.316 µM.
Setting [13] is: second compound 0.316 µM, first compound 1 µM.
The mark [14] stands for this setting: second compound 1 µM, first compound 0.0316 µM.
Setting [15] is: second compound 1 µM, first compound 0.1 µM.
Setting [16] is: second compound 1 µM, first compound 0.316 µM.
[17] abbreviates: second compound 1 µM, first compound 1 µM.

“And” between values parts separate entries of the source, which are not always exact repeats. Equal values may be shown once. A value given as a limit tells only on which side of the number the result lay.

By IC50 is commonly meant the concentration that gives 50% inhibition. As usually defined, the viability, T/C is the result in the treated group divided by that in the control group, in per cent.
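Also: spheroids exposed to agents for 7 days.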
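For viability, T/C in this document: 100% = DMSO vehicle control viability.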

On to `Cn1cnc2c(F)c(Nc3ccc(Br)cc3Cl)c(C(=O)NOCCO)cc21` + CCN1CCN(Cc2ccc(Nc3ncc(F)c(-c4cc(F)c5nc(C)n(C(C)C)c5c4)n3)nc2)CC1, for which the IC50 was 190 nM under setting [1]; 19.5 nM under setting [2]; less than 9.49 nM under setting [3]; less than 9.49 nM under setting [4]; less than 9.49 nM under setting [5]. Moreover, the viability, T/C (second compound 0.01 µM, first compound 0.00949 µM) is 79.8%; the viability, T/C (second compound 0.01 µM, first compound 0.03 µM) was 64.2%; the viability, T/C (second compound 0.01 µM, first compound 0.0949 µM) is 53.6%; the viability, T/C (second compound 0.01 µM, first compound 0.3 µM) was 48.5%; the viability, T/C (second compound 0.01 µM, first compound 0.949 µM) is 38.1%; the viability, T/C (second compound 0.01 µM, first compound 3 µM) is 24.4%. Besides, the viability, T/C is, setting by setting: (second compound 0.0316 µM, first compound 0.00949 µM) 54.8%; (second compound 0.0316 µM, first compound 0.03 µM) 46.3%; (second compound 0.0316 µM, first compound 0.0949 µM) 40.3%; (second compound 0.0316 µM, first compound 0.3 µM) 39%; (second compound 0.0316 µM, first compound 0.949 µM) 31.6%; (second compound 0.0316 µM, first compound 3 µM) 22%. The viability, T/C reads like this: (second compound 0.1 µM, first compound 0.00949 µM) 48.9%; (second compound 0.1 µM, first compound 0.03 µM) 42.7%; (second compound 0.1 µM, first compound 0.0949 µM) 39.5%; (second compound 0.1 µM, first compound 0.3 µM) 33.9%; (second compound 0.1 µM, first compound 0.949 µM) 28.5%; (second compound 0.1 µM, first compound 3 µM) 20.9%. The viability, T/C is 42.9% (second compound 0.316 µM, first compound 0.00949 µM); 41.7% (second compound 0.316 µM, first compound 0.03 µM); 35.9% (second compound 0.316 µM, first compound 0.0949 µM); 33% (second compound 0.316 µM, first compound 0.3 µM); 24.6% (second compound 0.316 µM, first compound 0.949 µM); 20.3% (second compound 0.316 µM, first compound 3 µM). The viability, T/C by setting is: (second compound 1 µM, first compound 0.00949 µM) 45.3%; (second compound 1 µM, first compound 0.03 µM) 43%; (second compound 1 µM, first compound 0.0949 µM) 36.5%; (second compound 1 µM, first compound 0.3 µM) 29.4%; (second compound 1 µM, first compound 0.949 µM) 26.3%; (second compound 1 µM, first compound 3 µM) 17.8%.
`Cn1ncc(Cl)c1-c1cc(C(=O)NC(CN)Cc2cccc(F)c2)sc1Cl` (centres undefined) + CCN1CCN(Cc2ccc(Nc3ncc(F)c(-c4cc(F)c5nc(C)n(C(C)C)c5c4)n3)nc2)CC1: the IC50 under setting [1] came out at 312 nM; the IC50 under setting [2] was determined as 125 nM; the IC50 under setting [3] was 50.1 nM; the IC50 under setting [4] was less than 31.6 nM; the IC50 under setting [5] is 64.4 nM. Further, the viability, T/C (second compound 0.01 µM, first compound 0.0316 µM) was 78%; the viability, T/C (second compound 0.01 µM, first compound 0.1 µM) was 60.3%; the viability, T/C (second compound 0.01 µM, first compound 0.316 µM) is 48.7%; the viability, T/C (second compound 0.01 µM, first compound 1 µM) was 35.4%; the viability, T/C (second compound 0.01 µM, first compound 3.16 µM) was 24.5%; the viability, T/C (second compound 0.01 µM, first compound 10 µM) was 0.14%. Further, the viability, T/C by setting is: (second compound 0.0316 µM, first compound 0.0316 µM) 64.5%; (second compound 0.0316 µM, first compound 0.1 µM) 49%; (second compound 0.0316 µM, first compound 0.316 µM) 40.5%; (second compound 0.0316 µM, first compound 1 µM) 27.9%; (second compound 0.0316 µM, first compound 3.16 µM) 24%; (second compound 0.0316 µM, first compound 10 µM) 0.12%. Further, the viability, T/C is 53.4% under setting [6]; 46.2% under setting [7]; 34.4% under setting [8]; 28.1% under setting [9]; 21.1% (second compound 0.1 µM, first compound 3.16 µM); 0.12% (second compound 0.1 µM, first compound 10 µM). For the same compound, the viability, T/C is 48.9% under setting [10]; 44.5% under setting [11]; 33.9% under setting [12]; 28.9% under setting [13]; 20.6% (second compound 0.316 µM, first compound 3.16 µM); 0.14% (second compound 0.316 µM, first compound 10 µM). Moreover, the viability, T/C under setting [14] is 54.1%; the viability, T/C under setting [15] is 49.1%; the viability, T/C under setting [16] was 34.9%; the viability, T/C under setting [17] is 29.9%; the viability, T/C (second compound 1 µM, first compound 3.16 µM) was 21.7%; the viability, T/C (second compound 1 µM, first compound 10 µM) is 0.2%.
`Cn1cnc2c(F)c(Nc3ccc(Br)cc3Cl)c(C(=O)NOCCO)cc21`: the viability, T/C (compound 0.00949 µM) is 94% and 97.4%; the viability, T/C (compound 0.03 µM) is 86.6% and 73.7%; the viability, T/C (compound 0.0949 µM) is 85.2% and 77.9%; the viability, T/C (compound 0.3 µM) is 64.3% and 67.1%; the viability, T/C (compound 0.949 µM) is 69.9% and 51.7%; the viability, T/C (compound 3 µM) is 49.4% and 36.6%. The IC50 (curve of compound) is > 3000 nM and 1070 nM.
Regarding `COc1c(OCCCN2CCOCC2)ccc2c3n(c(=NC(=O)c4cnc(N)nc4)nc12)CCN3` + CC(C)NCC(C(=O)N1CCN(c2ncnc3c2C(C)CC3O)CC1)c1ccc(Cl)cc1, the IC50 reads like this: under setting [3], 45.9 nM; under setting [4], 35.8 nM; under setting [5], 4.21 nM; (curve of first compound, second compound 3.16 µM) less than 3.16 nM; (curve of first compound, second compound 10 µM) less than 3.16 nM. For the same compound, the viability, T/C is 81.6% (second compound 0.1 µM, first compound 0.00316 µM); 74.9% (second compound 0.1 µM, first compound 0.01 µM); 58% under setting [6]; 33.3% under setting [7]; 16.8% under setting [8]; 9.2% under setting [9]. For the same compound, the viability, T/C is, setting by setting: (second compound 0.316 µM, first compound 0.00316 µM) 67.2%; (second compound 0.316 µM, first compound 0.01 µM) 67.5%; under setting [10], 52.1%; under setting [11], 27.5%; under setting [12], 15.2%; under setting [13], 8.52%. Further, the viability, T/C is 53.5% (second compound 1 µM, first compound 0.00316 µM); 39.2% (second compound 1 µM, first compound 0.01 µM); 32.4% under setting [14]; 21.1% under setting [15]; 9.37% under setting [16]; 7.49% under setting [17]. The viability, T/C is 42.2% (second compound 3.16 µM, first compound 0.00316 µM); 33.3% (second compound 3.16 µM, first compound 0.01 µM); 23.6% (second compound 3.16 µM, first compound 0.0316 µM); 15% (second compound 3.16 µM, first compound 0.1 µM); 8.38% (second compound 3.16 µM, first compound 0.316 µM); 5.77% (second compound 3.16 µM, first compound 1 µM). For the same compound, the viability, T/C reads like this: (second compound 10 µM, first compound 0.00316 µM) 34.2%; (second compound 10 µM, first compound 0.01 µM) 25.9%; (second compound 10 µM, first compound 0.0316 µM) 22.4%; (second compound 10 µM, first compound 0.1 µM) 11.9%; (second compound 10 µM, first compound 0.316 µM) 7.65%; (second compound 10 µM, first compound 1 µM) 4.58%.
In the case of `Cn1ncc(Cl)c1-c1cc(C(=O)NC(CN)Cc2cccc(F)c2)sc1Cl` (centres undefined), the viability, T/C runs as follows: (compound 0.0316 µM) 98.6% and 91.8%; (compound 0.1 µM) 85.3% and 76%; (compound 0.316 µM) 74.4% and 67.2%; (compound 1 µM) 53.1% and 49%; (compound 3.16 µM) 42.2% and 36.7%; (compound 10 µM) 0.31% and 0.21%. Further, the IC50 (curve of compound) was 1480 nM and 1100 nM.

The values are drawn from PubChem BioAssay AID2060341 (Molecular Pharmacology Branch, DTP, NCI, 2025).
